Assay results taken from PMC7316778 (Nature Communications, 2020).
“And” between values parts separate entries of the source, which are not always exact repeats. Equal values may be shown once. Read-outs that look alike come from different tables or passages of the source.

How the values were obtained:
[1] = target: CSNK1G3 (CK1 gamma 3) (Homo sapiens, UniProt Q9Y6M4); assay: SelectScreen kinase assay
Protocol: (§3) Selectivity profiling assays were performed by the Invitrogen SelectScreen™ Services. […] The concentration of ATP was selected to be equal to the KM, unless indicated otherwise.

[2] = target: FGFR2 (Homo sapiens, UniProt P21802); assay: SelectScreen kinase assay; details: for Inhibition at 1 µM (%): FGFR2, ZLYTE, ATP Km app
FGFR2, sequence (P21802 22-821): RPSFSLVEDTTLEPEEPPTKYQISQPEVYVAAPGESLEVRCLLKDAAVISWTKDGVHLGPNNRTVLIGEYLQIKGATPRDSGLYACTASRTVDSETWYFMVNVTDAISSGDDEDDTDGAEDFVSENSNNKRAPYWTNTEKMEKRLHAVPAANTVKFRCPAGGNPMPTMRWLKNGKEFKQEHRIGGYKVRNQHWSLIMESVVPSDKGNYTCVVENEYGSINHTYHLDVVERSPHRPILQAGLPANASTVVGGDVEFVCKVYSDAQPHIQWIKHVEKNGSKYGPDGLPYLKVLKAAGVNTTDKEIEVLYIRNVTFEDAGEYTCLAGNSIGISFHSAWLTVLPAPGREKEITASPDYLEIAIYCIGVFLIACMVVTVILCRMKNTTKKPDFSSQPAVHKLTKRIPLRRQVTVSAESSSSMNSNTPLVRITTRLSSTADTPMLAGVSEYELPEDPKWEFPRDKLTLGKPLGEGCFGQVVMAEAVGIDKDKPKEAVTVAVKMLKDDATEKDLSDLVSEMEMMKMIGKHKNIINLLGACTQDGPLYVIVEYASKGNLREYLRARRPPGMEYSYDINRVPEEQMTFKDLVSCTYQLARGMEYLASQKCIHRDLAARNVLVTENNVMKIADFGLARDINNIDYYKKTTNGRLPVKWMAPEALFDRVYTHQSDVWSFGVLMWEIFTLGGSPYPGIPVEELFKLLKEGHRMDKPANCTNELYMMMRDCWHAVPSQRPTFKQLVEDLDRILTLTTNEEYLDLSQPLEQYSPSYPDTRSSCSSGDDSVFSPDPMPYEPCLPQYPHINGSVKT
Protocol: as §3

[3] = target: DAPK1 (Homo sapiens, UniProt P53355); assay: SelectScreen kinase assay
Protocol: as §3

[4] = target: CDK5/p35 (Homo sapiens, UniProt Q00535); assay: SelectScreen kinase assay
CDK5/p35, sequence (Q00535 whole entry): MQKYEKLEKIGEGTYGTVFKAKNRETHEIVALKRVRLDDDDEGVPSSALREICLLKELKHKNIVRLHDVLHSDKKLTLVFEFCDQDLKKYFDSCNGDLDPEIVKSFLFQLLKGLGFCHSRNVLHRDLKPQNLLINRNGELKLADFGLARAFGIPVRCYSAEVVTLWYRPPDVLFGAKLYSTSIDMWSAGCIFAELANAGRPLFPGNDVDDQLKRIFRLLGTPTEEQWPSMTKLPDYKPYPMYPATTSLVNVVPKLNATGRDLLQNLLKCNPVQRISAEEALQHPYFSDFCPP
CDK5/p35, sequence (Q15078 whole entry partner): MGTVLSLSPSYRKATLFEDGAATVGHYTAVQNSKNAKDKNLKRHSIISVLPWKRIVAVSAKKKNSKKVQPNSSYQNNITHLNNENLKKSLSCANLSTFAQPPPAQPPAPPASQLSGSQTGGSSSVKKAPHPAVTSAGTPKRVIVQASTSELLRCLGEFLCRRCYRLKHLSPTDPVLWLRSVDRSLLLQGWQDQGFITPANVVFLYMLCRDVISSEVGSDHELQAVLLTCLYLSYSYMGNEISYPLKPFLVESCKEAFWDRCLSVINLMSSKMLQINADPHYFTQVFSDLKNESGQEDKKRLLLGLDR
Protocol: as §3

[5] = target: CLK3 (Homo sapiens, UniProt P49761); assay: SelectScreen kinase assay
Protocol: as §3

[6] = target: ACVR1 (ALK2) (Homo sapiens, UniProt Q04771); assay: SelectScreen kinase assay
Protocol: as §3

[7] = target: ERBB2 (HER2) (Homo sapiens, UniProt P04626); assay: SelectScreen kinase assay; details: for Inhibition at 1 µM (%): ERBB2 (HER2), ZLYTE, ATP Km app
ERBB2 (HER2), sequence (P04626 23-1255): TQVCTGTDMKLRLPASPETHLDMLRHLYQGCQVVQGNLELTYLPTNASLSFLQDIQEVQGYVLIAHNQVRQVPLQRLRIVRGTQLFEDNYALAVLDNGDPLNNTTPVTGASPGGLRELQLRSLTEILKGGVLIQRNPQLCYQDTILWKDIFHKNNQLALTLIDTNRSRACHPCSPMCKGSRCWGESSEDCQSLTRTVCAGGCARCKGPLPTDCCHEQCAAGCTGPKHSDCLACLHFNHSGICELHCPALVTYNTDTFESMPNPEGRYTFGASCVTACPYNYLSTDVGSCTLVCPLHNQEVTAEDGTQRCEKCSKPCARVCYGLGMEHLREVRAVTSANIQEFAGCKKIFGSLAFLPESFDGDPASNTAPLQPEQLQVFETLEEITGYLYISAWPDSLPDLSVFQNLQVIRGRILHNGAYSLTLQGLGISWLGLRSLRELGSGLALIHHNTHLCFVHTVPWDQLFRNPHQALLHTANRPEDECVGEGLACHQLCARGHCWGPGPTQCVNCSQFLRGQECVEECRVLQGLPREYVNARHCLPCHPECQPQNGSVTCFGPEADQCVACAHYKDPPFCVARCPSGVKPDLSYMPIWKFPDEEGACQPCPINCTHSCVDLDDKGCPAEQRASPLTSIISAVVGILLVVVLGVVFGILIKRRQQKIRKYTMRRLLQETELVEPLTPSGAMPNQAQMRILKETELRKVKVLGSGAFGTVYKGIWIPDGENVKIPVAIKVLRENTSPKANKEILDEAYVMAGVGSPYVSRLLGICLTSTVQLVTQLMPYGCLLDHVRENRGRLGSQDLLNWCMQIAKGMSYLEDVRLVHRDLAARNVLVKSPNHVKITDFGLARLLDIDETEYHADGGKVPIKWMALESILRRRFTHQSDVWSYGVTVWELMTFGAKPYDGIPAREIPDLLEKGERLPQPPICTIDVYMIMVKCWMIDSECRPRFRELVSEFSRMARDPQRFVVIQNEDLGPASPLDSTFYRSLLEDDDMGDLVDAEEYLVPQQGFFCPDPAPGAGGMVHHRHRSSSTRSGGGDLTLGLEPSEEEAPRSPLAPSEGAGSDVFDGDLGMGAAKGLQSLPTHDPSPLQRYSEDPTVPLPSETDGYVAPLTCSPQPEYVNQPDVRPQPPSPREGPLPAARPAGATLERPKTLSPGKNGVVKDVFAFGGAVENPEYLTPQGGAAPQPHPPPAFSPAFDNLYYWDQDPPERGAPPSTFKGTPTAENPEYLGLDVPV
Protocol: as §3

[8] = target: T1, MAP2K3 (MEK3) (Homo sapiens, UniProt P46734); assay: SelectScreen kinase assay
T1 sequence (P46734 1-347): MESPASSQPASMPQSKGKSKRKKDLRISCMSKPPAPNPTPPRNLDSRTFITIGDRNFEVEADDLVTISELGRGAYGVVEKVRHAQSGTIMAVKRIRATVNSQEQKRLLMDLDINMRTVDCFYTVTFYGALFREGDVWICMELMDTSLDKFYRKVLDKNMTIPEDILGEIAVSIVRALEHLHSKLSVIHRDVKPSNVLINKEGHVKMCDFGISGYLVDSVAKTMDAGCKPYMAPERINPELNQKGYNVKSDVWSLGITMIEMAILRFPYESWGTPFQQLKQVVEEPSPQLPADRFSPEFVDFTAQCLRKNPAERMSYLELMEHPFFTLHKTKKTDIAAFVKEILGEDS
Protocol: as §3

[9] = target: LRRK2 (Homo sapiens, UniProt Q5S007); assay: SelectScreen kinase assay
LRRK2, sequence (Q5S007 970-2527 limits assumed, species assumed): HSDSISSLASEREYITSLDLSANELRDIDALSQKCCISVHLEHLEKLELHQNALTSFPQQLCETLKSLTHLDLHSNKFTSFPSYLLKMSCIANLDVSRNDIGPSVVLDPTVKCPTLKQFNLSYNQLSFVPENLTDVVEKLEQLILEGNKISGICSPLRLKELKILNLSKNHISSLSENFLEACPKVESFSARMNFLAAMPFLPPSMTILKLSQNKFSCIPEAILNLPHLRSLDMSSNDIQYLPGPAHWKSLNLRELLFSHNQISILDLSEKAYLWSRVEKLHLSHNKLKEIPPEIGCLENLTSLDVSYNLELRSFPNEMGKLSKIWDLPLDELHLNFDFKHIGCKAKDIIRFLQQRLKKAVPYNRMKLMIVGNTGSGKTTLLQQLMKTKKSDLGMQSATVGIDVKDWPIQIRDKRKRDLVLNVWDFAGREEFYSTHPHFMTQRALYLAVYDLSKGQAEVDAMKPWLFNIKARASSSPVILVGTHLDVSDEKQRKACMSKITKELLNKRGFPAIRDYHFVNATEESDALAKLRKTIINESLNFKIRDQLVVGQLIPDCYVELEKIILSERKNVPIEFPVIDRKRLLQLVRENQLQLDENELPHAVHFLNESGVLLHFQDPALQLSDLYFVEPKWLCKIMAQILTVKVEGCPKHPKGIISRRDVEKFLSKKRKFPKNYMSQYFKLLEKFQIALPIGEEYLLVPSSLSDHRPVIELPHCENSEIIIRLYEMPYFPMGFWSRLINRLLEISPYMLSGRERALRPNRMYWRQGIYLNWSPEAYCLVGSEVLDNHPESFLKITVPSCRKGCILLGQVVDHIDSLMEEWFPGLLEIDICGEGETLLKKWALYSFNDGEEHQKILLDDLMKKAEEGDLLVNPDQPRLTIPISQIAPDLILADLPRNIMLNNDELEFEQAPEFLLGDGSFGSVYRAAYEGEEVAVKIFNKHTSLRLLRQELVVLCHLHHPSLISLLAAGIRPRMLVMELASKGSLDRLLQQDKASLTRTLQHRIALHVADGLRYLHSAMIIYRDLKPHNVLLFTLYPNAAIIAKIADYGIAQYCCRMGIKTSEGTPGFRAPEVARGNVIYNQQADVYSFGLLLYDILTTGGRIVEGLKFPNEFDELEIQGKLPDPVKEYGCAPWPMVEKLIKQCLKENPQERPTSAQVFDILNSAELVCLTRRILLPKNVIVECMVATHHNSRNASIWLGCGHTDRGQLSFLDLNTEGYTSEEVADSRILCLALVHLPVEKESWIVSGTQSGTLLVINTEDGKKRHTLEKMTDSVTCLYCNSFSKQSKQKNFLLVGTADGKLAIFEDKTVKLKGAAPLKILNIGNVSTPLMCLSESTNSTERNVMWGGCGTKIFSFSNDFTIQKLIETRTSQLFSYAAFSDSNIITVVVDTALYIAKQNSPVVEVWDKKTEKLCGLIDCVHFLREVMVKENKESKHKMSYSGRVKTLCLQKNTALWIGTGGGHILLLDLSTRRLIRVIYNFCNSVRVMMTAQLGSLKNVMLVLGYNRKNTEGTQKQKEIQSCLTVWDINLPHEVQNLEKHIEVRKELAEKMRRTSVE
Protocol: as §3

[10] = target: JAK1 (Homo sapiens, UniProt P23458); assay: SelectScreen kinase assay; details: for Inhibition at 1 µM (%): JAK1, ZLYTE, ATP Km app
Protocol: as §3

[11] = target: CSNK1A1L (Homo sapiens, UniProt Q8N752); assay: SelectScreen kinase assay
Protocol: as §3

[12] = target: T2, FES^WT (Homo sapiens, UniProt P07332); assay: In vitro TR-FRET kinase assay; type: biochemical; details: TR-FRET assay, 5 µM ATP; n = 3; read-out: pIC50 FES^WT (converted)
T2 construct: human FES cDNA encoding residues 448–822 or human FER cDNA encoding residues 448–820 was amplified by PCR; made in house; host or cells: E. coli BL21(DE3), co-expressing YopH phosphatase
Protocol: All measurements were performed in triplicate.

[13] = system: FES^S700C HL-60 neutrophils; assay: Phagocytosis assay with GFP-expressing E. coli; type: cell-based, human; details: for Phagocytic index / GFP-positive cells (%) / Mean GFP intensity (RFU): listed as WEL028; for GFP-positive cells (%): Sup. Fig. 15a; for Mean GFP intensity (RFU): Sup. Fig. 15b
Protocol: (§1) HL-60 cells were differentiated to neutrophils as described above. Cells were counted and centrifuged (200g, 5 min), followed by resuspension in growth medium without antibiotics. Cells were incubated with vehicle or inhibitor (from 1000x concentrated stocks in DMSO) for 1 h at 37 °C prior to infection (1×10^6 cells in 900 µL in 12-well plate). Meanwhile, E. coli B834(DE3) constitutively expressing GFP^A206K were grown in LB medium to an OD600 of 0.4–1.0, after which bacteria were centrifuged (2000g, 5 min), washed and resuspended in PBS to appropriate density. Neutrophils were infected by addition of bacteria at multiplicity of infection (MOI) of 30 unless stated otherwise. Cells were then incubated for 1 h at 37 °C unless stated otherwise, after which cells were resuspended and transferred to Eppendorf tubes, washed in FACS buffer (1 mL, 500g, 3 min) and fixed in 1% PFA in PBS (15 min, 4 °C, in the dark). Samples were further processed as described above.
(§2) Events (generally 20,000 per condition) were gated by forward and side scatter (cells), side scatter area (singlets) and the percentage of GFP-positive cells and GFP mean fluorescence intensity (MFI) were determined based on background fluorescence for non-infected cells. The GREEN-B channel (525/30 filter) was used to detect GFP.

[14] = system: WT HL-60 neutrophils; assay: Phagocytosis assay with GFP-expressing E. coli; type: cell-based, human; details: Figure 7e, replicates, listed as WEL028
Protocol: as §1, §2

[15] = target: IRAK1 (Homo sapiens, UniProt P51617); assay: SelectScreen kinase assay
IRAK1, sequence (P51617 whole entry): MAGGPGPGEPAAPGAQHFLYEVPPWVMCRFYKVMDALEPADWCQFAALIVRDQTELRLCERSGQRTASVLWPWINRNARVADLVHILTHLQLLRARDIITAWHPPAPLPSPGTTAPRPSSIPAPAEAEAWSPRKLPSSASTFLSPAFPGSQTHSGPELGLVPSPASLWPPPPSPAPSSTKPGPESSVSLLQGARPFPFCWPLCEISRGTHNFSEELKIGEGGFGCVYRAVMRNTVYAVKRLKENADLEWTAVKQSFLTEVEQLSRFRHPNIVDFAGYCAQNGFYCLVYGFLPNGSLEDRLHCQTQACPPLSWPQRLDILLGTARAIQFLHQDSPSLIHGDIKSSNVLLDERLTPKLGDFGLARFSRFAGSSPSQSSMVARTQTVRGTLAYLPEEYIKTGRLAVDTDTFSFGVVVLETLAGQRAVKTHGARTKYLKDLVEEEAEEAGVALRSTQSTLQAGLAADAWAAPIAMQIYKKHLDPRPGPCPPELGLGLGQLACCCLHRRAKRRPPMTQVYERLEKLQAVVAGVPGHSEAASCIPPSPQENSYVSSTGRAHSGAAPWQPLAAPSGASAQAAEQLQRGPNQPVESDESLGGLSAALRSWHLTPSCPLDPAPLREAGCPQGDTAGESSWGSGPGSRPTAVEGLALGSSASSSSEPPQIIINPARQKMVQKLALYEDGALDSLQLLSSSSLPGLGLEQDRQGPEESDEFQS
Protocol: as §3

[16] = 1 h, 1 μM WEL028, 1 h preincubation
[17] = read-out: Inhibition at 1 µM (%)

Q: For `C#CCOc1ccc(Nc2ncc(Cl)c(Nc3ccccc3NC(=O)C=C)n2)c(OC)c1` [Compound 6], which “Inhibition (%)” value ([1]; 1 μM WEL028, 1 h preincubation) is on record?
A: 0%

Q: What about the “Inhibition at 1 µM (%)” value ([1]; CSNK1G3 (CK1 gamma 3), 1 µM, ZLYTE, ATP Km app, listed as WEL028, 1 µM) of the same compound?
A: 3% and -2%

Q: What about the inhibition at 1 µM [2, 16] of the same compound?
A: 7%

Q: What about the “Inhibition at 1 µM (%)” value [2] of the same compound?
A: 11%

Q: What about the “Inhibition at 1 µM (%)” value ([2]; listed as WEL028, 1 µM) of the same compound?
A: 4%

Q: And the inhibition at 1 µM [3, 16]?
A: 12%

Q: And the “Inhibition at 1 µM (%)” value ([3]; DAPK1, 1 µM, Adapta, ATP Km app, listed as WEL028, 1 µM)?
A: 13%

Q: What about the inhibition at 1 µM ([3]; read-out: Inhibition at 1 µM (%), DAPK1, 1 µM, Adapta, ATP Km app) of the same compound?
A: 12%

Q: What about the inhibition at 1 µM [4, 16] of the same compound?
A: -4%

Q: What about the “Inhibition at 1 µM (%)” value ([4]; CDK5/p35, 1 µM, ZLYTE, ATP Km app, listed as WEL028, 1 µM) of the same compound?
A: -8% and 0%

Q: And the inhibition at 1 µM [5, 16]?
A: 11%

Q: What about the “Inhibition at 1 µM (%)” value ([5]; CLK3, 1 µM, ZLYTE, ATP Km app) of the same compound?
A: 23%

Q: And the inhibition at 1 µM [6, 16]?
A: 2%

Q: What about the inhibition at 1 µM ([6]; read-out: Inhibition at 1 µM (%), ACVR1 (ALK2), 1 µM, LanthaScreen Binding) of the same compound?
A: 3%

Q: What about the inhibition at 1 µM [7, 16] of the same compound?
A: 2%

Q: And the “Inhibition at 1 µM (%)” value [7]?
A: -2%

Q: What about the “Inhibition at 1 µM (%)” value ([7]; listed as WEL028, 1 µM) of the same compound?
A: 6%

Q: And the inhibition at 1 µM [8, 16]?
A: 46%

Q: And the “Inhibition at 1 µM (%)” value ([8]; MAP2K3 (MEK3), 1 µM, LanthaScreen Binding, listed as WEL028, 1 µM)?
A: 53%

Q: And the inhibition at 1 µM ([8]; read-out: Inhibition at 1 µM (%), MAP2K3 (MEK3), 1 µM, LanthaScreen Binding)?
A: 38%

Q: And the IC50 [9]?
A: 0.0501 µM

Q: What about the inhibition at 1 µM ([9]; 1 h) of the same compound?
A: 94%

Q: What about the Apparent fold selectivity ([9]; IC50 on that kinase divided by IC50 on FES^S700C) of the same compound?
A: 12 fold

Q: And the inhibition at 1 µM [9, 17]?
A: 94%

Q: And the “Inhibition (%)” value ([10]; 1 μM WEL028, 1 h preincubation)?
A: -3%

Q: What about the “Inhibition at 1 µM (%)” value [10] of the same compound?
A: -2%

Q: And the “Inhibition at 1 µM (%)” value ([10]; listed as WEL028, 1 µM)?
A: -3%

Q: And the inhibition at 1 µM ([11]; 1 h)?
A: 5%

Q: What about the inhibition at 1 µM [11, 17] of the same compound?
A: 5%

Q: And the IC50 [12]?
A: > 3 µM

Q: And the “Reduction of phagocytic index” value ([13]; 100 nM, 1 h, E. coli MOI 30, 1 h)?
A: 30–50%

Q: And the Phagocytic index ([13]; Figure 7e, S700C, replicates)?
A: 145.478 and 171.315 and 187.921 and 222.417 and 183.286

Q: And the Phagocytic index ([13]; Figure 7i, replicates)?
A: 197.442 and 178.118 and 223.309 and 208.369 and 195.015

Q: And the Phagocytic index ([13]; MOI 0, Sup. Fig. 15d)?
A: 11.3713 and 7.7474 and 12.7423

Q: What about the Phagocytic index ([13]; MOI 5, Sup. Fig. 15d) of the same compound?
A: 256.754 and 179.658 and 258.748

Q: What about the Phagocytic index ([13]; MOI 10, Sup. Fig. 15d) of the same compound?
A: 353.426 and 268.67 and 311.603

Q: And the Phagocytic index ([13]; MOI 30, Sup. Fig. 15d)?
A: 419.958 and 366.26 and 418.025

Q: And the Phagocytic index ([13]; MOI 50, Sup. Fig. 15d)?
A: 485.281 and 414.473 and 534.485

Q: What about the “GFP-positive cells (%)” value ([13]; infection time 0 min) of the same compound?
A: 18.616% and 19.116% and 23.8538%

Q: And the “Mean GFP intensity (RFU)” value ([13]; infection time 0 min)?
A: 251.299 RFU and 272.27 RFU and 265.594 RFU

Q: What about the Phagocytic index ([13]; infection time 0 min, Sup. Fig. 15c) of the same compound?
A: 46.7819 and 52.047 and 63.3542

Q: What about the “GFP-positive cells (%)” value ([13]; infection time 15 min) of the same compound?
A: 35.6181% and 40.0295% and 44.0403%

Q: What about the “Mean GFP intensity (RFU)” value ([13]; infection time 15 min) of the same compound?
A: 355.136 RFU and 341.544 RFU and 336.989 RFU

Q: What about the Phagocytic index ([13]; infection time 15 min, Sup. Fig. 15c) of the same compound?
A: 126.493 and 136.719 and 148.411

Q: What about the “GFP-positive cells (%)” value ([13]; infection time 30 min) of the same compound?
A: 53.551% and 63.4482% and 62.11%

Q: What about the “Mean GFP intensity (RFU)” value ([13]; infection time 30 min) of the same compound?
A: 496.403 RFU and 400.363 RFU and 431.37 RFU

Q: What about the Phagocytic index ([13]; infection time 30 min, Sup. Fig. 15c) of the same compound?
A: 265.829 and 254.023 and 267.924

Q: And the “GFP-positive cells (%)” value ([13]; infection time 60 min)?
A: 64.7116% and 74.5174% and 69.3761%

Q: And the “Mean GFP intensity (RFU)” value ([13]; infection time 60 min)?
A: 571.855 RFU and 482.086 RFU and 578.862 RFU

Q: What about the Phagocytic index ([13]; infection time 60 min, Sup. Fig. 15c) of the same compound?
A: 370.057 and 359.238 and 401.592

Q: And the Phagocytic index [14]?
A: 160.957 and 207.068 and 250.511 and 251.311 and 284.865

Q: What about the inhibition at 1 µM [15, 16] of the same compound?
A: 26%

Q: And the “Inhibition at 1 µM (%)” value ([15]; IRAK1, 1 µM, Adapta, ATP Km app, listed as WEL028, 1 µM)?
A: 31%

Q: What about the inhibition at 1 µM ([15]; read-out: Inhibition at 1 µM (%), IRAK1, 1 µM, Adapta, ATP Km app) of the same compound?
A: 20%
